Laboratory results reported in ChEMBL document CHEMBL3244120, “Monomethylthio analogues of 1-(2,4,5-trimethoxyphenyl)-2-aminopropane” (J Med Chem, 1977).

What was measured:
[1] = test system: Oryctolagus cuniculus; assay: Hyperthermic activity in New Zealand rabbit assessed as increase in rectal temperature measured as time to reach peak effect at 14.2 umol/kg administered in marginal ear vein as solution of amine hydrochloride in nonpyrogenic saline; assay type: functional, Rectum
[2] = test system: Oryctolagus cuniculus; assay: Hyperthermic activity in New Zealand rabbit assessed as increase in rectal temperature measured as time to reach peak effect at 7.1 umol/kg administered in marginal ear vein as solution of amine hydrochloride in nonpyrogenic saline; assay type: functional, Rectum
[3] = test system: Oryctolagus cuniculus; assay: Hyperthermic activity in New Zealand rabbit assessed as mean maximum rise in rectal temperature at 14.2 umol/kg administered in marginal ear vein as solution of amine hydrochloride in nonpyrogenic saline; assay type: functional, Rectum
[4] = test system: Oryctolagus cuniculus; assay: Hyperthermic activity in New Zealand rabbit assessed as mean maximum rise in rectal temperature at 7.1 umol/kg administered in marginal ear vein as solution of amine hydrochloride in nonpyrogenic saline; assay type: functional, Rectum
[5] = test system: Oryctolagus cuniculus; assay: Hyperthermic activity in New Zealand rabbit assessed as dose required for 1 degC rise in rectal temperature administered in marginal ear vein as solution of amine hydrochloride in nonpyrogenic saline; assay type: functional, Rectum
[6] = test system: Oryctolagus cuniculus; assay: Hyperthermic activity in New Zealand rabbit assessed as mean maximum rise in rectal temperature at 0.25 to 21.2 umol/kg administered in marginal ear vein as solution of amine hydrochloride in nonpyrogenic saline relative to l-(2,5-dimethoxy-4-methylphenyl)-2-aminopropane; assay type: functional, Rectum
[7] = test system: Oryctolagus cuniculus; assay: Hyperthermic activity in New Zealand rabbit at 0.25 to 21.2 umol/kg administered in marginal ear vein as solution of amine hydrochloride in nonpyrogenic saline by time-temperature curve integration method relative to l-(2,5-dimethoxy-4-methylphenyl)-2-aminopropane; assay type: functional
[8] = test system: Brain; assay: Drug uptake in Sprague-Dawley rat brain assessed as R to S enantiomeric ratio at 30 mg/kg, ip after 15 mins by electron-capture gas chromatographic analysis; assay type: ADME, organism-based; design: dose 30 mg/kg, route intraperitoneal; conditions: in vivo, 0.25 h
[9] = test system: Brain; assay: Drug uptake in Sprague-Dawley rat brain assessed as R to S enantiomeric ratio at 30 mg/kg, ip after 30 mins by electron-capture gas chromatographic analysis; assay type: ADME, organism-based; design: dose 30 mg/kg, route intraperitoneal; conditions: in vivo, 0.5 h
[10] = test system: Brain; assay: Drug uptake in Sprague-Dawley rat brain assessed as R to S enantiomeric ratio at 30 mg/kg, ip after 60 mins by electron-capture gas chromatographic analysis; assay type: ADME, organism-based; design: dose 30 mg/kg, route intraperitoneal; conditions: in vivo, 1 h
[11] = test system: Oryctolagus cuniculus; assay: Hyperthermic activity in New Zealand rabbit assessed as increase in rectal temperature measured as time to reach peak effect at 21.3 umol/kg administered in marginal ear vein as solution of amine hydrochloride in nonpyrogenic saline; assay type: functional, Rectum
[12] = test system: Oryctolagus cuniculus; assay: Hyperthermic activity in New Zealand rabbit assessed as increase in rectal temperature measured as time to reach peak effect at 10.6 umol/kg administered in marginal ear vein as solution of amine hydrochloride in nonpyrogenic saline; assay type: functional, Rectum
[13] = test system: Oryctolagus cuniculus; assay: Hyperthermic activity in New Zealand rabbit assessed as increase in rectal temperature measured as time to reach peak effect at 5.3 umol/kg administered in marginal ear vein as solution of amine hydrochloride in nonpyrogenic saline; assay type: functional, Rectum
[14] = test system: Oryctolagus cuniculus; assay: Hyperthermic activity in New Zealand rabbit assessed as mean maximum rise in rectal temperature at 21.3 umol/kg administered in marginal ear vein as solution of amine hydrochloride in nonpyrogenic saline; assay type: functional, Rectum
[15] = test system: Oryctolagus cuniculus; assay: Hyperthermic activity in New Zealand rabbit assessed as mean maximum rise in rectal temperature at 10.6 umol/kg administered in marginal ear vein as solution of amine hydrochloride in nonpyrogenic saline; assay type: functional, Rectum
[16] = test system: Oryctolagus cuniculus; assay: Hyperthermic activity in New Zealand rabbit assessed as mean maximum rise in rectal temperature at 5.3 umol/kg administered in marginal ear vein as solution of amine hydrochloride in nonpyrogenic saline; assay type: functional, Rectum
[17] = test system: Oryctolagus cuniculus; assay: Hyperthermic activity in New Zealand rabbit assessed as increase in rectal temperature measured as time to reach peak effect at 2 umol/kg administered in marginal ear vein as solution of amine hydrochloride in nonpyrogenic saline; assay type: functional, Rectum
[18] = test system: Oryctolagus cuniculus; assay: Hyperthermic activity in New Zealand rabbit assessed as increase in rectal temperature measured as time to reach peak effect at 0.67 umol/kg administered in marginal ear vein as solution of amine hydrochloride in nonpyrogenic saline; assay type: functional, Rectum
[19] = test system: Oryctolagus cuniculus; assay: Hyperthermic activity in New Zealand rabbit assessed as increase in rectal temperature measured as time to reach peak effect at 0.22 umol/kg administered in marginal ear vein as solution of amine hydrochloride in nonpyrogenic saline; assay type: functional, Rectum
[20] = test system: Oryctolagus cuniculus; assay: Hyperthermic activity in New Zealand rabbit assessed as mean maximum rise in rectal temperature at 2 umol/kg administered in marginal ear vein as solution of amine hydrochloride in nonpyrogenic saline; assay type: functional, Rectum
[21] = test system: Oryctolagus cuniculus; assay: Hyperthermic activity in New Zealand rabbit assessed as mean maximum rise in rectal temperature at 0.67 umol/kg administered in marginal ear vein as solution of amine hydrochloride in nonpyrogenic saline; assay type: functional, Rectum
[22] = test system: Oryctolagus cuniculus; assay: Hyperthermic activity in New Zealand rabbit assessed as mean maximum rise in rectal temperature at 0.22 umol/kg administered in marginal ear vein as solution of amine hydrochloride in nonpyrogenic saline; assay type: functional, Rectum
[23] = test system: Brain; assay: Drug uptake in Sprague-Dawley rat brain assessed as R to S enantiomeric ratio at 30 mg/kg, ip after 120 mins by electron-capture gas chromatographic analysis; assay type: ADME, organism-based; design: dose 30 mg/kg, route intraperitoneal; conditions: in vivo, 2 h
[24] = test system: Oryctolagus cuniculus; assay: Hyperthermic activity in New Zealand rabbit assessed as increase in rectal temperature measured as time to reach peak effect at 1 umol/kg administered in marginal ear vein as solution of amine hydrochloride in nonpyrogenic saline; assay type: functional, Rectum
[25] = test system: Oryctolagus cuniculus; assay: Hyperthermic activity in New Zealand rabbit assessed as increase in rectal temperature measured as time to reach peak effect at 0.50 umol/kg administered in marginal ear vein as solution of amine hydrochloride in nonpyrogenic saline; assay type: functional, Rectum
[26] = test system: Oryctolagus cuniculus; assay: Hyperthermic activity in New Zealand rabbit assessed as increase in rectal temperature measured as time to reach peak effect at 0.25 umol/kg administered in marginal ear vein as solution of amine hydrochloride in nonpyrogenic saline; assay type: functional, Rectum
[27] = test system: Oryctolagus cuniculus; assay: Hyperthermic activity in New Zealand rabbit assessed as mean maximum rise in rectal temperature at 1 umol/kg administered in marginal ear vein as solution of amine hydrochloride in nonpyrogenic saline; assay type: functional, Rectum
[28] = test system: Oryctolagus cuniculus; assay: Hyperthermic activity in New Zealand rabbit assessed as mean maximum rise in rectal temperature at 0.50 umol/kg administered in marginal ear vein as solution of amine hydrochloride in nonpyrogenic saline; assay type: functional, Rectum
[29] = test system: Oryctolagus cuniculus; assay: Hyperthermic activity in New Zealand rabbit assessed as mean maximum rise in rectal temperature at 0.25 umol/kg administered in marginal ear vein as solution of amine hydrochloride in nonpyrogenic saline; assay type: functional, Rectum
[30] = test system: Brain; assay: Drug uptake in Sprague-Dawley rat brain assessed as R to S enantiomeric ratio at 15 mg/kg, ip after 5 mins by electron-capture gas chromatographic analysis; assay type: ADME, organism-based; design: dose 15 mg/kg, route intraperitoneal; conditions: in vivo
[31] = test system: Brain; assay: Drug uptake in Sprague-Dawley rat brain assessed as R to S enantiomeric ratio at 15 mg/kg, ip after 15 mins by electron-capture gas chromatographic analysis; assay type: ADME, organism-based; design: dose 15 mg/kg, route intraperitoneal; conditions: in vivo, 0.25 h
[32] = test system: Brain; assay: Drug uptake in Sprague-Dawley rat brain assessed as R to S enantiomeric ratio at 15 mg/kg, ip after 30 mins by electron-capture gas chromatographic analysis; assay type: ADME, organism-based; design: dose 15 mg/kg, route intraperitoneal; conditions: in vivo, 0.5 h
[33] = test system: Brain; assay: Drug uptake in Sprague-Dawley rat brain assessed as R to S enantiomeric ratio at 15 mg/kg, ip after 60 mins by electron-capture gas chromatographic analysis; assay type: ADME, organism-based; design: dose 15 mg/kg, route intraperitoneal; conditions: in vivo, 1 h
[34] = test system: Brain; assay: Drug uptake in Sprague-Dawley rat brain assessed as R to S enantiomeric ratio at 15 mg/kg, ip after 120 mins by electron-capture gas chromatographic analysis; assay type: ADME, organism-based; design: dose 15 mg/kg, route intraperitoneal; conditions: in vivo, 2 h

**Q.** Which Time [1] does the source give for `COc1cc(CC(C)N)c(SC)cc1OC.Cl` (racemic) here?
**A.** 75 min

**Q.** What about the Time [2] of the same compound?
**A.** 105 min

**Q.** What about the T [3] of the same compound?
**A.** 1.01 °C

**Q.** What about the T [4] of the same compound?
**A.** 0.82 °C

**Q.** What about the Activity [5] of the same compound?
**A.** 14 µmol/kg

**Q.** And the “fold change (FC)” value [6]?
**A.** 0.017

**Q.** And the “fold change (FC)” value [7]?
**A.** 0.022

**Q.** And the Ratio [8]?
**A.** 1.14

**Q.** And the Ratio [9]?
**A.** 1.09

**Q.** What about the Ratio [10] of the same compound?
**A.** 1.43

**Q.** Which results are given for `COc1cc(OC)c(SC)cc1CC(C)N.Cl` (racemic)?
**A.** Time [11]: 180 min; Time [12]: 135 min; Time [13]: 120 min; T [14]: 1.62 °C; T [15]: 1.09 °C; T [16]: 0.6 °C; Activity [5]: 9.77 µmol/kg; fold change (FC) [6]: 0.028; fold change (FC) [7]: 0.039; Ratio [8]: 1.1; Ratio [9]: 1.11; Ratio [10]: 1.35

**Q.** `COc1cc(SC)c(OC)cc1CC(C)N.Cl` (racemic) was tested. Which Time [17] did it give?
**A.** 195 min

**Q.** What about the Time [18] of the same compound?
**A.** 165 min

**Q.** And the Time [19]?
**A.** 120 min

**Q.** What about the T [20] of the same compound?
**A.** 2.31 °C

**Q.** And the T [21]?
**A.** 1.15 °C

**Q.** And the T [22]?
**A.** 0.6 °C

**Q.** What about the Activity [5] of the same compound?
**A.** 0.5 µmol/kg

**Q.** What about the “fold change (FC)” value [6] of the same compound?
**A.** 0.54

**Q.** And the “fold change (FC)” value [7]?
**A.** 0.64

**Q.** What about the Ratio [8] of the same compound?
**A.** 1.54

**Q.** What about the Ratio [9] of the same compound?
**A.** 1.14

**Q.** What about the Ratio [10] of the same compound?
**A.** 1.23

**Q.** What about the Ratio [23] of the same compound?
**A.** 1.62

**Q.** `COc1cc(CC(C)N)c(OC)cc1C.Cl` (racemic) was tested. Which Time [24] did it give?
**A.** 165 min

**Q.** What about the Time [25] of the same compound?
**A.** 195 min

**Q.** What about the Time [26] of the same compound?
**A.** 135 min

**Q.** What about the T [27] of the same compound?
**A.** 2.85 °C

**Q.** And the T [28]?
**A.** 1.98 °C

**Q.** What about the T [29] of the same compound?
**A.** 0.8 °C

**Q.** And the Activity [5]?
**A.** 0.27 µmol/kg

**Q.** What about the “fold change (FC)” value [6] of the same compound?
**A.** 1

**Q.** What about the “fold change (FC)” value [7] of the same compound?
**A.** 1

**Q.** What about the Ratio [30] of the same compound?
**A.** 0.95

**Q.** And the Ratio [31]?
**A.** 1.06

**Q.** And the Ratio [32]?
**A.** 1.46

**Q.** And the Ratio [33]?
**A.** 1.55

**Q.** And the Ratio [34]?
**A.** 1.34

**Q.** `CCN(CC)C(=O)[C@@H]1C=C2c3cccc4[nH]cc(c34)C[C@H]2N(C)C1` [LYSERGIDE] was tested. Which “fold change (FC)” value [6] did it give?
**A.** 33

**Q.** With `COc1cc(CCN)cc(OC)c1OC` [MESCALINE] as the compound, how does the “fold change (FC)” value [6] read?
**A.** 0.0006
